Measurements from article PMC7866863, “A Cellular Assay for the Identification and Characterization of Connexin Gap Junction Modulators” (International Journal of Molecular Sciences, 2021).

Target: T1, Cx43 (connexin 43 gap junction) (Mus musculus, UniProt P23242)
T1 construct: gene Gja1; mouse Cx43 coding region, recombinantly expressed in HeLa donor and biosensor cells
Experiment: HeLa coculture cAMP-transfer GloSensor luminescence assay for Cx43 gap junctions
Type: cell-based

T1 sequence (P23242 2-382): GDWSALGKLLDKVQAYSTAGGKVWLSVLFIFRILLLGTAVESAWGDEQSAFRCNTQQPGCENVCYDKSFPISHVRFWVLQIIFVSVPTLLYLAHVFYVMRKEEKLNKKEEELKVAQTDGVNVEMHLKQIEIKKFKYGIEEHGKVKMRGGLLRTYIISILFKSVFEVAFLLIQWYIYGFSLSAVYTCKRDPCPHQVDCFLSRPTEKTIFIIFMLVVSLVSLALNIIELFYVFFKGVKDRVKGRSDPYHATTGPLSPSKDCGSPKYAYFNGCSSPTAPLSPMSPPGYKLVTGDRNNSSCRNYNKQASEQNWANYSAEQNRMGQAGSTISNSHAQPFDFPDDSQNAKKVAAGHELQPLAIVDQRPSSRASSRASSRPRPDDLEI

For `CC1(C)[C@@H](OC(=O)CCC(=O)O)CC[C@]2(C)[C@H]3C(=O)C=C4[C@@H]5C[C@@](C)(C(=O)O)CC[C@]5(C)CC[C@@]4(C)[C@]3(C)CC[C@@H]12` [carbenoxolone], the IC50 was 44.5 ± 4.8 µM.
